Patent US12344631B2, “C17 polar-substituted heteroaromatic synthetic triterpenoids and methods of use thereof” (REATA PHARMACEUTICALS, INC., priority 2019, dated 2025)

Columns and labels:
[1] = system: RAW 264.7 cells; assay: Nitric oxide suppression assay (IFNγ-induced NO production); assay type: cell-based, mouse; conditions: for IC50: Mus musculus, RAW264.7, RAW 264.7 cells, 2 h pretreatment, 20 ng/mL interferon gamma 24 h, nitrite by Griess, read-out: NO IC50 (nM) (Mean ± SD); for NO IC50 Relative to RTA 402 (fold) (Mean ± SD): average of ratios from replicate experiments, benchmark RTA 402
Summary of the method: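 Mouse RAW 264.7 macrophages in RPMI 1640 with 0.5% FBS were pretreated with compounds for 2 h at 37° C (0.1% DMSO final), then stimulated with 20 ng/mL IFNγ for 24 h. Nitrite in the supernatant was read at 525 nm against standards and normalized to DMSO/IFNγ wells. IC50 values were fitted with dependence on WST-1 viability.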

[2] = target: CYP3A4 (Homo sapiens, UniProt P08684); assay: CYP3A4 (midazolam) inhibition in human liver microsomes; conditions: for CYP3A4 inhibition compared with historical data for RTA 402 and RTA 408: comparable conditions (FIG. 1); for inhibition at 10 min, 1 μM: human, probe midazolam (5 μM); for inhibition at 10 min, 1 μM / CYP3A4 (Midazolam) % Inhibition: human liver microsomes; for CYP3A4 inhibition lower than the corresponding unsubstituted compound: vs CC2, CC1 or CC3; for CYP3A4 inhibition lower than the corresponding unsubstituted compound / CYP3A4 (Midazolam) % Inhibition: 1 μM; for CYP3A4 (Midazolam) % Inhibition: historical data performed under comparable conditions
[3] = system: AML-12 hepatocyte cell line; assay: Glutathione assay (total glutathione, GSH-Glo); assay type: cell-based, mouse; conditions: for EC50: Mus musculus, AML12, AML-12 cells, 24 hours, total glutathione, read-out: GSH EC50 (nM) (Mean ± SD); for GSH EC50 Relative to RTA 402 (fold) (Mean ± SD): benchmark RTA 402
Description: The effect of compound treatment on total glutathione levels was evaluated in the mouse AML-12 hepatocyte cell line. Glutathione—a tripeptide consisting of cysteine, glutamate, and glycine—is the major thiol-containing protein within the cell and regulates cellular redox balance. Glutathione also plays important roles in detoxification, protein glutathionylation, and iron-sulfur cluster biogenesis (Bachhawat and Yadav, 2018). Nrf2 regulates the expression of many genes involved in glutathione synthesis and metabolism, including both subunits of glutamate cysteine ligase (GCL), the enzyme that catalyzes the rate limiting step of glutathione biosynthesis (Thimmulappa et al., 2002). […] The next day, cells were treated with vehicle (DMSO) or test compound (0.03 nM to 1000 nM). Each well received a final concentration of 0.1% DMSO. Cells were incubated at 37° C., 5% CO2 for 24 hours. Total glutathione concentrations were measured using the GSH-Glo Glutathione Assay kit (Promega) according to the manufacturer's instructions. Briefly, a standard curve was prepared by serially diluting the provided glutathione solution. […] After a 30-minute incubation at room temperature, 100 μL of Luciferin detection reagent was added to all sample and standard wells and incubated for 15 minutes. Luminescence was measured using a PHERAstar plate reader. The EC50 value was determined using Excel and GraphPad Prism software. The basal concentration of glutathione was set to 0% and the highest concentration of glutathione produced following treatment with a test compound was set to 100% and a dose-response curve was generated. The dose-response curve was fit using nonlinear regression analysis and used to extrapolate the EC50 value.

[4] = system: AREc32 reporter cell line (antioxidant response element of rat Gsta2, Nrf2 target gene); assay: AREc32 luciferase reporter activation; assay type: cell-based, human; conditions: for AREc32 EC2X Relative to RTA 402 (fold) (Mean ± SD): average of ratios from replicate experiments, benchmark RTA 402; for AREc32 Relative to CC in Same Experiment (Mean ± SD): average of ratios from experiments with direct comparisons; for EC (2-fold): human, Arec32, 19 h, concentration increasing luminescence signal 2-fold above vehicle, nineteen hours, read-out: AREc32 EC2X (nM) (Mean ± SD)
Summary of the method: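 MCF-7-derived cells carry luciferase driven by eight copies of the rat Gsta2 ARE. EC2X was extrapolated from a nonlinear fit of fold increase over vehicle.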

Sequence of CYP3A4 (P08684 whole entry): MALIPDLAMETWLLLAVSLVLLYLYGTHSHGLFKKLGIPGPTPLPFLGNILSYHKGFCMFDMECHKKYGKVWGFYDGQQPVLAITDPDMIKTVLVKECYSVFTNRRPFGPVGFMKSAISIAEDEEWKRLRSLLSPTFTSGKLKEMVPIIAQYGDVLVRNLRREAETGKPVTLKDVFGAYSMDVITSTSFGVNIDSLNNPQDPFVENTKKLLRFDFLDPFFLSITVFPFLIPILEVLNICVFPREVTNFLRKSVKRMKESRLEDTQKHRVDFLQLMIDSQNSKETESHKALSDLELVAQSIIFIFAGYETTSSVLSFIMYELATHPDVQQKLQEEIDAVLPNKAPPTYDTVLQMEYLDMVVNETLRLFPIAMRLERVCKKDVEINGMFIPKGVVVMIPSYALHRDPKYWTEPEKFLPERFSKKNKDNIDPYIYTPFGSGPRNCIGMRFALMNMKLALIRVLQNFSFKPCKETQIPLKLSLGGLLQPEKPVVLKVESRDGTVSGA

Row | Structure (SMILES) | IC50 [1] [nM] | NO IC50 Relative to RTA 402 (fold) (Mean ± SD) [1] | CYP3A4 inhibition compared with historical data for RTA 402 and RTA 408 [2] | inhibition at 10 min, 1 μM [2] [%] | CYP3A4 inhibition lower than the corresponding unsubstituted compound [2] [%] | EC50 [3] [nM] | GSH EC50 Relative to RTA 402 (fold) (Mean ± SD) [3] | AREc32 EC2X Relative to RTA 402 (fold) (Mean ± SD) [4] | AREc32 Relative to CC in Same Experiment (Mean ± SD) ([4]; comparison compound CC2) | EC (2-fold) [4] [nM] | CYP3A4 (Midazolam) % Inhibition [2] [%] | AREc32 Relative to CC in Same Experiment (Mean ± SD) ([4]; comparison compound CC3) | AREc32 Relative to CC in Same Experiment (Mean ± SD) ([4]; comparison compound CC1)
1 | CC1(C)CC[C@]2(c3nc(CF)no3)CC[C@]3(C)[C@H](C(=O)C=C4[C@@]5(C)C=C(C#N)C(=O)C(C)(C)[C@@H]5CC[C@]43C)[C@@H]2C1 [Compound T12] | 1.27 | 0.52 ± 0.12 | reduced CYP3A4 inhibition | 29.7 | 35 | 0.82 ± 0.4 | 0.50 ± 0.19 | 0.53 ± 0.12 | 0.75 ± 0.05 | 6.87 ± 1.57 |  |  | 
2 | COC(=O)[C@]12CCC(C)(C)C[C@H]1[C@H]1C(=O)C=C3[C@@]4(C)C=C(C#N)C(=O)C(C)(C)[C@@H]4CC[C@@]3(C)[C@]1(C)CC2 [RTA 402, Bardoxolone methyl, reference compound] |  |  |  |  |  |  |  |  |  |  | 48.4 |  | 
3 | C[C@@H]1C(=O)C(C#N)=C[C@]2(C)C3=CC(=O)[C@@H]4[C@@H]5CC(C)(C)CC[C@]5(c5nc(CF)no5)CC[C@@]4(C)[C@]3(C)CC[C@@H]12 [Compound T34] | 0.93 | 0.28 ± 0.06 | reduced CYP3A4 inhibition | 29.4 | 22 | 0.35 ± 0.06 | 0.18 ± 0.02 | 0.36 ± 0.05 |  | 4.5 ± 0.66 |  | 0.76 ± 0.14 | 
4 | Cc1nnc([C@]23CCC(C)(C)C[C@H]2[C@H]2C(=O)C=C4[C@@]5(C)C=C(C#N)C(=O)C(C)(C)[C@@H]5CC[C@@]4(C)[C@]2(C)CC3)o1 [CC1, reference compound] | 2.05 | 0.78 ± 0.10 |  | 20.7 |  | 1.09 ± 0.13 | 0.70 ± 0.12 | 0.79 ± 0.24 |  | 10.6 ± 2.73 |  |  | 1.00
5 | CC1(C)CC[C@]2(c3noc(CN)n3)CC[C@]3(C)[C@H](C(=O)C=C4[C@@]5(C)C=C(C#N)C(=O)C(C)(C)[C@@H]5CC[C@]43C)[C@@H]2C1 [Compound T2] | 1.15 | 0.38 ± 0.09 | reduced CYP3A4 inhibition | 21.4 | 53 | 1.21 ± 1.15 | 0.47 ± 0.38 | 0.28 ± 0.04 | 0.43 ± 0.00 | 3.67 ± 0.28 |  |  | 
6 | Cc1noc([C@]23CCC(C)(C)C[C@H]2[C@H]2C(=O)C=C4[C@@]5(C)C=C(C#N)C(=O)C(C)(C)[C@@H]5CC[C@@]4(C)[C@]2(C)CC3)n1 [CC2, reference compound] | 1.98 | 0.70 ± 0.18 |  | 45.8 |  | 2 ± 1.24 | 0.80 ± 0.16 | 0.74 ± 0.16 | 1.00 | 8.59 ± 1.88 |  |  | 
7 | CC1(C)CC[C@]2(NC(=O)C(C)(F)F)CC[C@]3(C)[C@H](C(=O)C=C4[C@@]5(C)C=C(C#N)C(=O)C(C)(C)[C@@H]5CC[C@]43C)[C@@H]2C1 [RTA 408, omaveloxolone, reference compound] |  |  |  |  |  |  |  |  |  |  | 56.6 |  | 
8 | CC1(C)CC[C@]2(c3noc(CF)n3)CC[C@]3(C)[C@H](C(=O)C=C4[C@@]5(C)C=C(C#N)C(=O)C(C)(C)[C@@H]5CC[C@]43C)[C@@H]2C1 [Compound T1] | 1.24 | 0.52 ± 0.12 | reduced CYP3A4 inhibition | 29.1 | 36 | 0.57 ± 0.22 | 0.35 ± 0.12 | 0.46 ± 0.13 | 0.62 ± 0.07 | 6.2 ± 1.37 |  |  | 
9 | Cc1noc([C@]23CCC(C)(C)C[C@H]2[C@H]2C(=O)C=C4[C@@]5(C)C=C(C#N)C(=O)[C@@H](C)[C@@H]5CC[C@@]4(C)[C@]2(C)CC3)n1 [CC3, reference compound] | 1.34 | 0.40 ± 0.06 |  | 37.7 |  | 1.16 ± 0.53 | 0.43 ± 0.14 | 0.66 ± 0.21 |  | 7.11 ± 1.15 |  | 1.00 | 
10 | CC1(C)CC[C@]2(c3nnc(CF)o3)CC[C@]3(C)[C@H](C(=O)C=C4[C@@]5(C)C=C(C#N)C(=O)C(C)(C)[C@@H]5CC[C@]43C)[C@@H]2C1 [Compound T11] | 0.98 | 0.37 ± 0.07 | reduced CYP3A4 inhibition | 17.7 | 15 | 0.54 ± 0.29 | 0.32 ± 0.13 | 0.25 ± 0.08 |  | 3.23 ± 0.77 |  |  | 0.27 ± 0.03
11 | Cn1nnc([C@]23CCC(C)(C)C[C@H]2[C@H]2C(=O)C=C4[C@@]5(C)C=C(C#N)C(=O)C(C)(C)[C@@H]5CC[C@@]4(C)[C@]2(C)CC3)n1 [Compound T21] | 1.89 ± 0.67 | 0.76 ± 0.36 |  |  |  | 3.18 ± 2.22 | 0.95 ± 0.34 | 1.67 ± 0.15 |  | 16.2 ± 4.2 |  |  | 
